From the NIST ThermoML archive (doi:10.1021/je300692s)
± gives the expanded uncertainty stated by the source.

Experiment: activity coefficient (dimensionless); of the first substance listed, at infinite dilution; xn = mol fraction of the nth substance listed
Conditions: 101 kPa, Liquid, Chromatography, x1 = 0

Compound | activity coefficient (322.9 K) | activity coefficient (333 K) | activity coefficient (343.1 K) | activity coefficient (323 K) | activity coefficient (322.6 K) | activity coefficient (332.5 K) | activity coefficient (342.8 K)
CCCCCCC [heptane] + CCCCCC[N+]1(C)CCCC1.O=S(=O)([N-]S(=O)(=O)C(F)(F)F)C(F)(F)F | 10.6 ± 1.1 | 9.43 ± 0.99 | 9.58 ± 1 |  |  |  | 
CCC(=O)CC [pentan-3-one] + CCCCCCCC[N+]1(C)CCCC1.O=S(=O)([N-]S(=O)(=O)C(F)(F)F)C(F)(F)F |  | 0.47 ± 0.05 | 0.44 ± 0.05 | 0.45 ± 0.05 |  |  | 
c1ccncc1 [pyridine] + CCCCCC[N+]1(C)CCCC1.O=S(=O)([N-]S(=O)(=O)C(F)(F)F)C(F)(F)F | 0.52 ± 0.06 | 0.52 ± 0.06 | 0.53 ± 0.06 |  |  |  | 
CC1CCCCC1 [methylcyclohexane] + CCCCCC[N+]1(C)CCCC1.O=S(=O)([N-]S(=O)(=O)C(F)(F)F)C(F)(F)F | 6.57 ± 0.69 | 6.07 ± 0.64 | 6.03 ± 0.63 |  |  |  | 
CC1CCCCC1 [methylcyclohexane] + CCCCCCCC[N+]1(C)CCCC1.O=S(=O)([N-]S(=O)(=O)C(F)(F)F)C(F)(F)F |  | 4.04 ± 0.42 | 3.9 ± 0.41 | 4.22 ± 0.44 |  |  | 
CCC(C)=O [butanone] + CCCCCCCCCC[N+]1(C)CCCC1.O=S(=O)([N-]S(=O)(=O)C(F)(F)F)C(F)(F)F |  |  |  |  | 0.39 ± 0.05 | 0.37 ± 0.04 | 0.34 ± 0.04
c1ccncc1 [pyridine] + CCCCCCCC[N+]1(C)CCCC1.O=S(=O)([N-]S(=O)(=O)C(F)(F)F)C(F)(F)F |  | 0.39 ± 0.05 | 0.41 ± 0.05 | 0.42 ± 0.05 |  |  | 
CO [methanol] + CCCCCC[N+]1(C)CCCC1.O=S(=O)([N-]S(=O)(=O)C(F)(F)F)C(F)(F)F | 0.94 ± 0.1 | 1.77 ± 0.18 | 0.95 ± 0.1 |  |  |  | 
CC#N [acetonitrile] + CCCCCCCC[N+]1(C)CCCC1.O=S(=O)([N-]S(=O)(=O)C(F)(F)F)C(F)(F)F |  | 0.39 ± 0.05 | 0.37 ± 0.04 | 0.43 ± 0.05 |  |  | 
CCCCCCC [heptane] + CCCCCCCC[N+]1(C)CCCC1.O=S(=O)([N-]S(=O)(=O)C(F)(F)F)C(F)(F)F |  | 6.06 ± 0.64 | 5.13 ± 0.54 | 6.4 ± 0.67 |  |  | 
Cc1cccc(C)c1 [1,3-dimethylbenzene] + CCCCCCCC[N+]1(C)CCCC1.O=S(=O)([N-]S(=O)(=O)C(F)(F)F)C(F)(F)F |  | 0.84 ± 0.09 | 1.05 ± 0.11 | 1 ± 0.1 |  |  | 
C1CCCCCC1 [cycloheptane] + CCCCCC[N+]1(C)CCCC1.O=S(=O)([N-]S(=O)(=O)C(F)(F)F)C(F)(F)F | 14 ± 1.5 | 19 ± 2 | 25.1 ± 2.6 |  |  |  | 
CC1CCCC1 [methylcyclopentane] + CCCCCCCC[N+]1(C)CCCC1.O=S(=O)([N-]S(=O)(=O)C(F)(F)F)C(F)(F)F |  | 3.36 ± 0.35 | 2.84 ± 0.3 | 3.13 ± 0.33 |  |  | 
C1CCCCCC1 [cycloheptane] + CCCCCCCC[N+]1(C)CCCC1.O=S(=O)([N-]S(=O)(=O)C(F)(F)F)C(F)(F)F |  | 12.1 ± 1.3 | 15.4 ± 1.6 | 8.62 ± 0.91 |  |  | 
CCCCCCCC [octane] + CCCCCC[N+]1(C)CCCC1.O=S(=O)([N-]S(=O)(=O)C(F)(F)F)C(F)(F)F | 14.2 ± 1.5 | 13.4 ± 1.4 | 12.9 ± 1.4 |  |  |  | 
CC1CCCC1 [methylcyclopentane] + CCCCCC[N+]1(C)CCCC1.O=S(=O)([N-]S(=O)(=O)C(F)(F)F)C(F)(F)F | 4.9 ± 0.51 | 4.52 ± 0.47 | 4.76 ± 0.5 |  |  |  | 
CC#N [acetonitrile] + CCCCCCCCCC[N+]1(C)CCCC1.O=S(=O)([N-]S(=O)(=O)C(F)(F)F)C(F)(F)F |  |  |  |  | 0.49 ± 0.05 | 0.5 ± 0.06 | 0.49 ± 0.05
ClCCl [dichloromethane] + CCCCCC[N+]1(C)CCCC1.O=S(=O)([N-]S(=O)(=O)C(F)(F)F)C(F)(F)F | 0.31 ± 0.04 | 0.36 ± 0.04 | 0.35 ± 0.04 |  |  |  | 
ClCCl [dichloromethane] + CCCCCCCCCC[N+]1(C)CCCC1.O=S(=O)([N-]S(=O)(=O)C(F)(F)F)C(F)(F)F |  |  |  |  | 0.27 ± 0.04 | 0.3 ± 0.04 | 0.3 ± 0.04
c1ccsc1 [thiophene] + CCCCCCCC[N+]1(C)CCCC1.O=S(=O)([N-]S(=O)(=O)C(F)(F)F)C(F)(F)F |  | 0.55 ± 0.06 | 0.53 ± 0.06 | 0.57 ± 0.06 |  |  | 
CC(C)O [propan-2-ol] + CCCCCCCCCC[N+]1(C)CCCC1.O=S(=O)([N-]S(=O)(=O)C(F)(F)F)C(F)(F)F |  |  |  |  | 1.52 ± 0.16 | 1.38 ± 0.14 | 1.25 ± 0.13
CCCCCCCCCC [decane] + CCCCCC[N+]1(C)CCCC1.O=S(=O)([N-]S(=O)(=O)C(F)(F)F)C(F)(F)F | 26 ± 2.7 | 19 ± 2 | 22.7 ± 2.4 |  |  |  | 

Compound | activity coefficient (322.9 K) | activity coefficient (333 K) | activity coefficient (343.1 K) | activity coefficient (323 K) | activity coefficient (322.6 K) | activity coefficient (332.5 K) | activity coefficient (342.8 K)
CCCCCCCC [octane] + CCCCCCCCCC[N+]1(C)CCCC1.O=S(=O)([N-]S(=O)(=O)C(F)(F)F)C(F)(F)F |  |  |  |  | 6.13 ± 0.64 | 5.92 ± 0.62 | 5.76 ± 0.61
CO [methanol] + CCCCCCCCCC[N+]1(C)CCCC1.O=S(=O)([N-]S(=O)(=O)C(F)(F)F)C(F)(F)F |  |  |  |  | 1.61 ± 0.17 | 1.32 ± 0.14 | 1.36 ± 0.14
CCCC(C)=O [pentan-2-one] + CCCCCCCCCC[N+]1(C)CCCC1.O=S(=O)([N-]S(=O)(=O)C(F)(F)F)C(F)(F)F |  |  |  |  | 0.52 ± 0.06 | 0.53 ± 0.06 | 0.54 ± 0.06
Cc1ccccc1 [toluene] + CCCCCC[N+]1(C)CCCC1.O=S(=O)([N-]S(=O)(=O)C(F)(F)F)C(F)(F)F | 1 ± 0.1 | 1.01 ± 0.1 | 1.04 ± 0.11 |  |  |  | 
CCc1ccccc1 [ethylbenzene] + CCCCCCCC[N+]1(C)CCCC1.O=S(=O)([N-]S(=O)(=O)C(F)(F)F)C(F)(F)F |  | 0.98 ± 0.1 | 1.04 ± 0.11 | 1.03 ± 0.1 |  |  | 
CCCCCC [hexane] + CCCCCCCC[N+]1(C)CCCC1.O=S(=O)([N-]S(=O)(=O)C(F)(F)F)C(F)(F)F |  | 4.8 ± 0.5 | 4.05 ± 0.43 | 5.01 ± 0.53 |  |  | 
CCCCCC [hexane] + CCCCCC[N+]1(C)CCCC1.O=S(=O)([N-]S(=O)(=O)C(F)(F)F)C(F)(F)F | 7.74 ± 0.81 | 7.38 ± 0.78 | 7.11 ± 0.75 |  |  |  | 
Cc1ccccc1 [toluene] + CCCCCCCC[N+]1(C)CCCC1.O=S(=O)([N-]S(=O)(=O)C(F)(F)F)C(F)(F)F |  | 0.78 ± 0.08 | 0.74 ± 0.08 | 0.76 ± 0.08 |  |  | 
C#CCCCCC [1-heptyne] + CCCCCCCCCC[N+]1(C)CCCC1.O=S(=O)([N-]S(=O)(=O)C(F)(F)F)C(F)(F)F |  |  |  |  | 1.81 ± 0.19 | 1.83 ± 0.19 | 1.83 ± 0.19
C=CCCCC [hex-1-ene] + CCCCCC[N+]1(C)CCCC1.O=S(=O)([N-]S(=O)(=O)C(F)(F)F)C(F)(F)F | 4.56 ± 0.48 | 4.63 ± 0.49 | 4.44 ± 0.47 |  |  |  | 
CCO [ethanol] + CCCCCC[N+]1(C)CCCC1.O=S(=O)([N-]S(=O)(=O)C(F)(F)F)C(F)(F)F | 1.41 ± 0.15 | 1.4 ± 0.14 | 1.31 ± 0.13 |  |  |  | 
CCC[N+](=O)[O-] [1-nitropropane] + CCCCCCCCCC[N+]1(C)CCCC1.O=S(=O)([N-]S(=O)(=O)C(F)(F)F)C(F)(F)F |  |  |  |  | 0.62 ± 0.07 | 0.61 ± 0.07 | 0.6 ± 0.06
C[N+](=O)[O-] [nitromethane] + CCCCCCCC[N+]1(C)CCCC1.O=S(=O)([N-]S(=O)(=O)C(F)(F)F)C(F)(F)F |  | 0.51 ± 0.06 | 0.48 ± 0.05 | 0.54 ± 0.06 |  |  | 
CC(C)CO [2-methyl-1-propanol] + CCCCCCCCCC[N+]1(C)CCCC1.O=S(=O)([N-]S(=O)(=O)C(F)(F)F)C(F)(F)F |  |  |  |  | 1.7 ± 0.18 | 1.53 ± 0.16 | 1.39 ± 0.14
CC(C)OC(C)C [diisopropyl ether] + CCCCCCCC[N+]1(C)CCCC1.O=S(=O)([N-]S(=O)(=O)C(F)(F)F)C(F)(F)F |  | 2.58 ± 0.27 | 2.26 ± 0.24 | 2.57 ± 0.27 |  |  | 
ClC(Cl)(Cl)Cl [tetrachloromethane] + CCCCCC[N+]1(C)CCCC1.O=S(=O)([N-]S(=O)(=O)C(F)(F)F)C(F)(F)F | 1.78 ± 0.19 | 1.85 ± 0.19 | 1.86 ± 0.19 |  |  |  | 
C=CCCCC [hex-1-ene] + CCCCCCCC[N+]1(C)CCCC1.O=S(=O)([N-]S(=O)(=O)C(F)(F)F)C(F)(F)F |  | 3.02 ± 0.32 | 2.58 ± 0.27 | 3.17 ± 0.33 |  |  | 
C[N+](=O)[O-] [nitromethane] + CCCCCCCCCC[N+]1(C)CCCC1.O=S(=O)([N-]S(=O)(=O)C(F)(F)F)C(F)(F)F |  |  |  |  | 0.63 ± 0.07 | 0.62 ± 0.07 | 0.6 ± 0.06
C1COCCO1 [1,4-dioxane] + CCCCCCCC[N+]1(C)CCCC1.O=S(=O)([N-]S(=O)(=O)C(F)(F)F)C(F)(F)F |  | 0.6 ± 0.06 | 0.31 ± 0.04 | 0.32 ± 0.04 |  |  | 
CCCCCCCCCC [decane] + CCCCCCCCCC[N+]1(C)CCCC1.O=S(=O)([N-]S(=O)(=O)C(F)(F)F)C(F)(F)F |  |  |  |  | 9.42 ± 0.99 | 9.05 ± 0.95 | 8.7 ± 0.91
ClC(Cl)Cl [trichloromethane] + CCCCCC[N+]1(C)CCCC1.O=S(=O)([N-]S(=O)(=O)C(F)(F)F)C(F)(F)F | 0.68 ± 0.07 | 0.72 ± 0.08 | 0.74 ± 0.08 |  |  |  | 
CCC(C)=O [butanone] + CCCCCCCC[N+]1(C)CCCC1.O=S(=O)([N-]S(=O)(=O)C(F)(F)F)C(F)(F)F |  | 0.34 ± 0.04 | 0.31 ± 0.04 | 0.36 ± 0.04 |  |  | 
